Patent US20090227600A1, “4-(PYRAZINE-2-YL) -PYRROLIDINE -2-CARBOXYLIC ACID COMPOUNDS AND DERIVATIVES THEREOF AS HEPATITIS C VIRUS INHIBITORS” (priority 2004, published 2009)

Target: T1, HCV RNA Polymerase, recombinant NS5B with C-terminal 21 amino acid deletion, genotype 1a strain H77 (Hepatitis C virus genotype 1a, UniProt P27958)
T1 construct: fused on or other part: C-terminal 6His-tag
Experiment: In vitro HCV RNA-dependent RNA polymerase inhibition assay, genotype 1a C-terminally truncated (delta21) enzyme
Type: biochemical, HCV genotype 1a
Conditions: genotype 1a delta21 NS5B enzyme; read-out: IC50 in delta-21 1a enzyme inhibition assay
Excerpt: Incorporation of [^33P]-GMP into RNA was followed by absorption of the biotin labelled RNA polymer by streptavidin containing SPA beads. A synthetic template consisting of biotinylated 13mer-oligoG hybridised to polyrC was used as a homopolymer substrate.
a) Genotype 1a C-Terminally Truncated (delta21) Enzyme
HCV RNA Polymerase [Recombinant NS5B with C-terminal 21 amino acid deletion and C-terminal 6His-tag (Ferrari et al. J. Virol, 73(2), 1999, 1649. ‘Characterization of soluble hepatitis C virus RNA-dependent RNA polymerase expressed in Escherichia coli.’) expressed in E. coli and purified to homogeneity] was added to 25 nM final concentration. Polymerase of genotype 1a was from strain H77 (Yanagi, M., Purcell, R. H., Emerson, S. U. & Bukh, J. (1997), Proceedings of the National Academy of Sciences, USA 94, 8738-8743) containing a sequence change from valine to isoleucine at position 180.
Reaction Conditions were 25 nM enzyme, 1.5 μg/ml oligo-rG13/poly-rC and 0.2 μCi α-^33P-GTP in 0.5 μM GTP (20 Ci/mMol), 20 mM Tris pH 7.5, 23 mM NaCl, 3 mM DTT, 5 mM MgCl2, 1 mM MnCl2.
Enzyme was diluted to 500 nM concentration in 20 mM Tris-HCl, pH 7.5, 25 mM NaCl and 3 mM DTT.
4× concentrated assay buffer mix was prepared using 1M Tris-HCl, pH7.5 (1 mL), 5M NaCl (0.25 mL), 1M DTT (0.12 mL) and Water (8.63 mL), Total 10 mL.
2× concentrated first reagent was prepared using 4× concentrated assay buffer mix (5 μL), 40 u/μL RNasin (0.1 μL), 20 μg/mL polyrC/biotinylated-oligoG (1.6 μL), 500 nM enzyme (1 μL) and Water (2.3 μL), Total 10 μl/well.
2× concentrated second reagent was prepared using 1M MgCl2 (0.1 μL), 1M MnCl2 (0.02 μL), 25 μM GTP (0.4 μL), α-[^33P]-GTP (10 μCi/μL, 0.02 μL) and water (9.5 μL), Total 10 μL/well.
The assay was set up using compound (1 μL in 100% DMSO), first reagent (10 μL), and second reagent (10 μL), Total 21 μL.
The reaction was performed in a U-bottomed, white, 96-well plate. The reaction was mixed on a plate-shaker, after addition of the Enzyme, and incubated for 1 h at 22° C. After this time, the reaction was stopped by addition of 60 μL 1.5 mg/ml streptavidin SPA beads (Amersham) in 0.1 M EDTA in PBS. The beads were incubated with the reaction mixture for 1 h at 22° C. after which 100 μL 0.1 M EDTA in PBS was added. The plate was sealed, mixed centrifuged and incorporated radioactivity determined by counting in a Trilux (Wallac) or Topcount (Packard) Scintillation Counter.
After subtraction of background levels without enzyme, any reduction in the amount of radioactivity incorporated in the presence of a compound, compared to that in the absence, was taken as a measure of the level of inhibition. Ten concentrations of compounds were tested in three- or fivefold dilutions. From the counts per minute, percentage of inhibition at highest concentration tested or IC50s for the compounds were calculated using GraFit 3, GraFit 4 or GraFit 5 (Erithacus Software Ltd.) software packages or a data evaluation macro for Excel based on XLFit Software (IDBS).

T1 sequence (P27958 2421-3011 V2599I, form open): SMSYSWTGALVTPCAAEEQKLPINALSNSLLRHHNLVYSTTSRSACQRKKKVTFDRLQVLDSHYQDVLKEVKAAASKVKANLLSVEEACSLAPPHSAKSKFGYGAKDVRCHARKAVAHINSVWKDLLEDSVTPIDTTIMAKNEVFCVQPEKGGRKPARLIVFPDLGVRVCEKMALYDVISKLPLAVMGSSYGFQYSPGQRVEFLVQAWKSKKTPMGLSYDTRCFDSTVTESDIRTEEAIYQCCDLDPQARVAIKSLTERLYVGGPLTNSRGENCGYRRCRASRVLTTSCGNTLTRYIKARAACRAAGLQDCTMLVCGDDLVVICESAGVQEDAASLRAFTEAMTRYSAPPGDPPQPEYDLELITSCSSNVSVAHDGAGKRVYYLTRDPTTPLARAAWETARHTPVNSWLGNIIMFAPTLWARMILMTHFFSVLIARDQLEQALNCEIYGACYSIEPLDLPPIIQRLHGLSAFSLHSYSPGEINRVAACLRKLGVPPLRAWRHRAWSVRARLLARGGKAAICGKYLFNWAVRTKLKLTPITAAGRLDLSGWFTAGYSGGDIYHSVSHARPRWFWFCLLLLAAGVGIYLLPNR

Structure (SMILES) | IC50
COc1cc(C(=O)N2[C@@H](c3nccs3)[C@@H](c3cnccn3)C[C@@]2(CC(C)C)C(=O)O)ccc1C(C)(C)C (racemic) [Compound A, rel-(2S,4S,5R)-2-Isobutyl-1-(4-tert-butyl-3-methoxybenzoyl)-4-(pyrazin-2-yl)-5-(1,3-thiazol-2-yl)pyrrolidine-2-carboxylic acid, reference compound] | > 1000 nM
COc1cc(C(=O)N2[C@@H](c3nccs3)[C@@H](c3cnccn3)C[C@@]2(Cc2ccccn2)C(=O)O)ccc1C(C)(C)C (racemic) [Compound C, rel-(2R,4S,5R)-1-(4-tert-Butyl-3-methoxybenzoyl)-2-(pyridin-2-ylmethyl)-4-(pyrazin-2-yl)-5-(1,3-thiazol-2-yl)pyrrolidine-2-carboxylic acid, reference compound] | 150 to 1000 nM
COc1cc(C(=O)N2[C@@H](c3nccs3)[C@@H](c3cnccn3)C[C@@]2(Cc2c[nH]cn2)C(=O)O)ccc1C(C)(C)C (racemic) [Compound D, rel-(2R,4S,5R)-1-(4-tert-Butyl-3-methoxybenzoyl)-2-(1H-imidazol-4-yl-methyl)-4-(pyrazin-2-yl)-5-(1,3-thiazol-2-yl)-pyrrolidine-2-carboxylic acid, reference compound] | > 1000 nM
COc1cc(C(=O)N2[C@@H](c3cncs3)[C@@H](c3cnccn3)C[C@@]2(CCSC)C(=O)O)ccc1C(C)(C)C (racemic) [Compound E, rel-(2R,4S,5R)-1-(4-tert-Butyl-3-methoxybenzoyl)-2-(2-(methylthio)ethyl)-4-(pyrazin-2-yl)-5-(1,3-thiazol-5-yl)-pyrrolidine-2-carboxylic acid, reference compound] | > 1000 nM
COc1cc(C(=O)N2[C@@H](c3nccs3)[C@@H](c3cnccn3)C[C@@]2(CCS(C)(=O)=O)C(=O)O)ccc1C(C)(C)C (racemic) [Compound F, rel-(2R,4S,5R)-1-(4-tert-Butyl-3-methoxybenzoyl)-2-(2-(methylsulphonyl)ethyl)-4-pyrazin-2-yl-5-(1,3-thiazol-2-yl)-pyrrolidine-2-carboxylic acid, reference compound] | > 1000 nM
COc1cc(C(=O)N2[C@@H](c3nccs3)[C@@H](c3cnccn3)C[C@@]2(Cc2ccccc2)C(=O)O)ccc1C(C)(C)C (racemic) [Compound G, rel-(2R,4S,5R)-1-(4-tert-Butyl-3-methoxybenzoyl)-2-(phenylmethyl)-4-(pyrazin-2-yl)-5-(1,3-thiazol-2-yl)pyrrolidine-2-carboxylic acid, reference compound] | > 1000 nM
COc1cc(C(=O)N2[C@@H](c3nccs3)[C@@H](c3cnccn3)C[C@@]2(Cc2cscn2)C(=O)O)ccc1C(C)(C)C (racemic) [Example 1, rel-(2R,4S,5R)-1-(3-Methoxy-4-tert-butylbenzoyl)-4-(pyrazin-2-yl)-2-(1,3-thiazol-4-ylmethyl)-5-(1,3-thiazol-2-yl)pyrrolidine-2-carboxylic acid] | < 150 nM
COc1cc(C(=O)N2[C@@H](c3nccs3)[C@@H](c3cnccn3)C[C@@]2(Cc2nccs2)C(=O)O)ccc1C(C)(C)C (racemic) [Example 3, rel-(2R,4S,5R)-1-(3-Methoxy-4-tert-butylbenzoyl)-4-(pyrazin-2-yl)-2-(1,3-thiazol-2-ylmethyl)-5-(1,3-thiazol-2-yl)pyrrolidine-2-carboxylic acid] | < 150 nM
COc1cc(C(=O)N2[C@@H](c3ncc(C)s3)[C@@H](c3cnccn3)C[C@@]2(Cc2ccsn2)C(=O)O)ccc1C(C)(C)C (racemic) [Example 5, rel-(2R,4S,5R)-1-(3-Methoxy-4-tert-butylbenzoyl)-5-(5-methyl-1,3-thiazol-2-yl)-4-(pyrazin-2-yl)-2-(1,2-thiazol-3-ylmethyl)pyrrolidine-2-carboxylic acid] | < 150 nM
COc1cc(C(=O)N2[C@@H](c3nccs3)[C@@H](c3cnccn3)C[C@@]2(Cc2ccsn2)C(=O)O)ccc1C(C)(C)C (racemic) [Example 7, rel-(2R,4S,5R)-1-(3-Methoxy-4-tert-butylbenzoyl)-4-(pyrazin-2-yl)-2-(1,2-thiazol-3-ylmethyl)-5-(1,3-thiazol-2-yl)pyrrolidine-2-carboxylic acid] | < 150 nM
COc1cc(C(=O)N2[C@@H](c3ncc(C)s3)[C@@H](c3cnccn3)C[C@@]2(Cn2cccn2)C(=O)O)ccc1C(C)(C)C (racemic) [Example 9, rel-(2R,4S,5R)-1-(3-Methoxy-4-tert-butylbenzoyl)-5-(5-methyl-1,3-thiazol-2-yl)-4-(pyrazin-2-yl)-2-(1H-pyrazol-1-ylmethyl)pyrrolidine-2-carboxylic acid] | < 150 nM
COc1cc(C(=O)N2[C@@H](c3nccs3)[C@@H](c3cnccn3)C[C@@]2(Cn2cccn2)C(=O)O)ccc1C(C)(C)C (racemic) [Example 11, rel-(2R,4S,5R)-1-(3-Methoxy-4-tert-butylbenzoyl)-4-(pyrazin-2-yl)-2-(1H-pyrazol-1-ylmethyl)-5-(1,3-thiazol-2-yl)pyrrolidine-2-carboxylic acid] | < 150 nM
COc1cc(C(=O)N2[C@@H](c3ncc(C)s3)[C@@H](c3cnccn3)C[C@@]2(Cc2nccs2)C(=O)O)ccc1C(C)(C)C (racemic) [Example 13, rel-(2R,4S,5R)-1-(3-Methoxy-4-tert-butylbenzoyl)-5-(5-methyl-1,3-thiazol-2-yl)-4-(pyrazin-2-yl)-2-(1,3-thiazol-2-ylmethyl)pyrrolidine-2-carboxylic acid] | < 150 nM
COc1cc(C(=O)N2[C@@H](c3ncc(C)s3)[C@@H](c3cnccn3)C[C@@]2(Cc2cscn2)C(=O)O)ccc1C(C)(C)C (racemic) [Example 15, rel-(2R,4S,5R)-1-(3-Methoxy-4-tert-butylbenzoyl)-5-(5-methyl-1,3-thiazol-2-yl)-4-(pyrazin-2-yl)-2-(1,3-thiazol-4-ylmethyl)pyrrolidine-2-carboxylic acid] | < 150 nM
COc1cc(C(=O)N2[C@@H](c3nccs3)[C@@H](c3cnccn3)C[C@@]2(CC(C)C)C(=O)O)ccc1C(C)(C)C (single isomer, unassigned; enantiomer a) [Compound B, reference compound] | > 1000 nM
COc1cc(C(=O)N2[C@@H](c3nccs3)[C@@H](c3cnccn3)C[C@@]2(Cc2cscn2)C(=O)O)ccc1C(C)(C)C (single isomer, unassigned; enantiomer a) [Example 2] | < 150 nM
COc1cc(C(=O)N2[C@@H](c3nccs3)[C@@H](c3cnccn3)C[C@@]2(Cc2nccs2)C(=O)O)ccc1C(C)(C)C (single isomer, unassigned; enantiomer a) [Example 4] | < 150 nM
COc1cc(C(=O)N2[C@@H](c3ncc(C)s3)[C@@H](c3cnccn3)C[C@@]2(Cc2ccsn2)C(=O)O)ccc1C(C)(C)C (single isomer, unassigned; enantiomer a) [Example 6] | < 150 nM
COc1cc(C(=O)N2[C@@H](c3nccs3)[C@@H](c3cnccn3)C[C@@]2(Cc2ccsn2)C(=O)O)ccc1C(C)(C)C (single isomer, unassigned; enantiomer a) [Example 8] | < 150 nM
COc1cc(C(=O)N2[C@@H](c3ncc(C)s3)[C@@H](c3cnccn3)C[C@@]2(Cn2cccn2)C(=O)O)ccc1C(C)(C)C (single isomer, unassigned; enantiomer a) [Example 10] | < 150 nM
COc1cc(C(=O)N2[C@@H](c3nccs3)[C@@H](c3cnccn3)C[C@@]2(Cn2cccn2)C(=O)O)ccc1C(C)(C)C (single isomer, unassigned; enantiomer a) [Example 12] | < 150 nM
COc1cc(C(=O)N2[C@@H](c3ncc(C)s3)[C@@H](c3cnccn3)C[C@@]2(Cc2nccs2)C(=O)O)ccc1C(C)(C)C (single isomer, unassigned; enantiomer a) [Example 14] | < 150 nM
